Assay results taken from ChEMBL document CHEMBL1131401, “Potent and selective bicyclic lactam inhibitors of thrombin: Part 2: P1 modifications” (Bioorg Med Chem Lett, 1998).

Experiments:
[1] = tested on: Rattus norvegicus; assay: In vivo mean occlusion time for the antithrombic activity in rat arterial thrombosis model; format: functional
[2] = biological target: T1, Serine protease 1 (Homo sapiens, UniProt P07477); assay: In vitro inhibitory activity against trypsin
[3] = biological target: Prothrombin (Homo sapiens, UniProt P00734); assay: In vitro inhibitory activity against thrombin(FIIa)
[4] = biological target: T1, Serine protease 1; assay: In vitro inhibitory activity against trypsin at concentration 100 uM

T1 sequence (P07477 whole entry): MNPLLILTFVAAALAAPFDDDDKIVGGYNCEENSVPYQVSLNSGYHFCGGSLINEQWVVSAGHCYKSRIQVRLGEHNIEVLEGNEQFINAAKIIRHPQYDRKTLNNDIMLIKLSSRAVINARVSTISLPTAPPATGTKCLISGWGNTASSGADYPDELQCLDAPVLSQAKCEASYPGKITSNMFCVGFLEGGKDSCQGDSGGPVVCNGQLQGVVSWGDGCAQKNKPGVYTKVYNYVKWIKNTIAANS

| Structure (SMILES) | MOT [1] [min] | IC50 [2] [µM] | IC50 [3] [µM] | inhibition [4] [%] |
| --- | --- | --- | --- | --- |
| N=C(N)NCCC[C@H](NC(=O)[C@@H]1CC[C@H]2CN(C(=O)CCc3ccccc3)CC(=O)N21)C(=O)c1nccs1 | 42 | < 0.001 |  |  |
| N=C(N)N1CCCC(C[C@H](NC(=O)[C@@H]2CC[C@H]3CN(C(=O)CCc4ccccc4)CC(=O)N32)C(=O)c2nccs2)C1 (some centres undefined) | >60 | 4.36 | 0.03 |  |
| N=C(N)N1CCC([C@H](NC(=O)[C@@H]2CC[C@H]3CN(C(=O)CCc4ccccc4)CC(=O)N32)C(=O)c2nccs2)CC1 | 57 | 11.9 | 0.001 |  |
| N[C@H]1CC[C@H]([C@H](NC(=O)[C@@H]2CC[C@H]3CN(C(=O)CCc4ccccc4)CC(=O)N32)C(=O)c2nccs2)CC1 | 48 | 8.99 | 0.033 |  |
| N=C(N)N1CCCC(C[C@@H](NC(=O)[C@@H]2CC[C@H]3CN(C(=O)CCc4ccccc4)CC(=O)N32)C(=O)c2nccs2)C1 (some centres undefined) | 27 | 31.6 | 0.137 |  |
| N=C(N)N1CCC([C@@H](NC(=O)[C@@H]2CC[C@H]3CN(C(=O)CCc4ccccc4)CC(=O)N32)C(=O)c2nccs2)CC1 |  |  | 0.15 | 31 |
| N=C(N)c1cccc(C[C@H](NC(=O)[C@@H]2CC[C@H]3CN(C(=O)CCc4ccccc4)CC(=O)N32)C(=O)c2nccs2)c1 | 18 | 7.75 | 0.077 |  |
